This note sets out measurements from patent US9994546B2, “Cyclopropylamines as LSD1 inhibitors” (Incyte Corporation, priority 2014, dated 2018).

Some results are limits rather than exact numbers.

This experiment has as its target LSD-1 enzyme (Homo sapiens (Human), UniProt O60341). Briefly: LANCE LSD1/KDM1A demethylase assay (LSD1 histone demethylase biochemical assay). The following applies: 1 nM LSD-1 enzyme, 1 hour preincubation at 25° C., 0.4 μM biotin-labeled Histone H3 peptide substrate. On the procedure:
LANCE LSD1/KDM1A demethylase assay—10 μL of 1 nM LSD-1 enzyme (ENZO BML-SE544-0050) in the assay buffer (50 mM Tris, pH 7.5, 0.01% Tween-20, 25 mM NaCl, 5 mM DTT) were preincubated for 1 hour at 25° C. with 0.8 μL compound/DMSO dotted in black 384 well polystyrene plates. […] After stopping the reactions plates were incubated for 30 minutes and read on a PHERAstar FS plate reader (BMG Labtech).
Background: In TR-FRET formats the signal depends on donor and acceptor labels being close together.
The IC50 is the concentration that gives 50% inhibition. Higher therefore signals a need for much substance. As to `N#CCC1(N2CCC(CN[C@@H]3C[C@H]3c3ccccc3)CC2)CN(c2ncccc2C#N)C1` (relative stereo) [Example 34, 2-[3-(Cyanomethyl)-3-(4-{[(trans-2-phenylcyclopropyl)amino]methyl}piperidin-1-yl)azetidin-1-yl]nicotinonitrile], the half-inhibitory concentration (IC50) was not above 100 nM. In turn, `CC(C)NC(=O)c1cc(F)c(N2CC(CC#N)(N3CCC(CN[C@@H]4C[C@H]4c4ccccc4)CC3)C2)cc1F` (relative stereo) [Example 35, 4-[3-(Cyanomethyl)-3-(4-{[(trans-2-phenylcyclopropyl)amino]methyl}piperidin-1-yl)azetidin-1-yl]-2,5-difluoro-N-isopropylbenzamide] showed an IC50 not above 100 nM. `N#CCC1(N2CCC(CN[C@@H]3C[C@H]3c3ccccc3)CC2)CN(c2ncccc2C(F)(F)F)C1` (relative stereo) [Example 36, {3-(4-{[(trans-2-Phenylcyclopropyl)amino]methyl}piperidin-1-yl)-1-[3-(trifluoromethyl)pyridin-2-yl]azetidin-3-yl}acetonitrile]: the concentration for half-maximal inhibition (IC50) is not above 100 nM. `N#CCC1(N2CCC(CN[C@@H]3C[C@H]3c3ccccc3)CC2)CN(c2ccc(C(F)(F)F)cn2)C1` (relative stereo) [Example 37, {3-(4-{[(trans-2-Phenylcyclopropyl)amino]methyl}piperidin-1-yl)-1-[5-(trifluoromethyl)pyridin-2-yl]azetidin-3-yl}acetonitrile] showed an IC50 not above 100 nM. `N#CCC1(N2CCC(CN[C@@H]3C[C@H]3c3ccccc3)CC2)CN(c2cccc(Cl)c2C#N)C1` (relative stereo) [Example 38, 2-Chloro-6-[3-(cyanomethyl)-3-(4-{[(trans-2-phenylcyclopropyl)amino]methyl}piperidin-1-yl)azetidin-1-yl]benzonitrile] showed an IC50 not above 100 nM. In turn, `N#CCC1(N2CCC(CN[C@@H]3C[C@H]3c3ccccc3)CC2)CN(c2ccccc2C#N)C1` (relative stereo) [Example 39, 2-[3-(Cyanomethyl)-3-(4-{[(trans-2-phenylcyclopropyl)amino]methyl}piperidin-1-yl)azetidin-1-yl]benzonitrile] showed an IC50 not above 100 nM.

Take `N#CCC1(N2CCC(CN[C@@H]3C[C@H]3c3ccccc3)CC2)CN(c2ccc(C#N)cc2)C1` (relative stereo) [Example 40, 4-[3-(Cyanomethyl)-3-(4-{[(trans-2-phenylcyclopropyl)amino]methyl}piperidin-1-yl)azetidin-1-yl]benzonitrile]: the IC50 was not above 100 nM. Under `COC(=O)N1CC(CC#N)(N2CCC(CN[C@@H]3C[C@H]3c3ccccc3)CC2)C1` (relative stereo) [Example 41, Methyl 3-(cyanomethyl)-3-(4-{[(trans-2-phenylcyclopropyl)amino]methyl}piperidin-1-yl)azetidine-1-carboxylate] stands not above 100 nM; under `N#CCC1(N2CCC(CN[C@@H]3C[C@H]3c3ccccc3)CC2)CN(C(=O)Nc2ccc(F)cc2F)C1` (relative stereo) [Example 42, 3-(Cyanomethyl)-N-(2,4-difluorophenyl)-3-(4-{[(trans-2-phenylcyclopropyl)amino]methyl}piperidin-1-yl)azetidine-1-carboxamide], not above 100 nM; under `N#CCC1(N2CCC(CN[C@@H]3C[C@H]3c3ccccc3)CC2)CN(C(=O)Nc2cccc(Cl)c2F)C1` (relative stereo) [Example 43, N-(3-Chloro-2-fluorophenyl)-3-(cyanomethyl)-3-(4-{[(trans-2-phenylcyclopropyl)amino]methyl}piperidin-1-yl)azetidine-1-carboxamide], not above 100 nM. Compound `N#CCC1(N2CCC(CN[C@@H]3C[C@H]3c3ccccc3)CC2)CN(C(=O)c2cc(F)cc(F)c2)C1` (relative stereo) [Example 44, [1-(3,5-Difluorobenzoyl)-3-(4-{[(trans-2-phenylcyclopropyl)amino]methyl}piperidin-1-yl)azetidin-3-yl]acetonitrile] returned a half-inhibitory concentration (IC50) not above 100 nM.

Compound `N#CCC1(N2CCC(CN[C@@H]3C[C@H]3c3ccccc3)CC2)CN(C(=O)c2ccccc2)C1` (relative stereo) [Example 45, [1-Benzoyl-3-(4-{[(trans-2-phenylcyclopropyl)amino]methyl}piperidin-1-yl)azetidin-3-yl]acetonitrile] came in with an IC50 not above 100 nM. Take `N#CCC1(N2CCC(CN[C@@H]3C[C@H]3c3ccccc3)CC2)CN(C(=O)c2ccccc2F)C1` (relative stereo) [Example 46, [1-(2-Fluorobenzoyl)-3-(4-{[(trans-2-phenylcyclopropyl)amino]methyl}piperidin-1-yl)azetidin-3-yl]acetonitrile]: the 50% inhibitory concentration (IC50) is not above 100 nM.

Compound `N#CCC1(N2CCC(CN[C@@H]3C[C@H]3c3ccccc3)CC2)CN(C(=O)c2cccc(F)c2)C1` (relative stereo) [Example 47, [1-(3-Fluorobenzoyl)-3-(4-{[(trans-2-phenylcyclopropyl)amino]methyl}piperidin-1-yl)azetidin-3-yl]acetonitrile] registered an IC50 not above 100 nM. Consider `N#CCC1(N2CCC(CN[C@@H]3C[C@H]3c3ccccc3)CC2)CN(C(=O)c2ccc(F)cc2)C1` (relative stereo) [Example 48, [1-(4-Fluorobenzoyl)-3-(4-{[(trans-2-phenylcyclopropyl)amino]methyl}piperidin-1-yl)azetidin-3-yl]acetonitrile], for which the concentration for half-maximal inhibition (IC50) was not above 100 nM. Next, `CN1CC(CC#N)(N2CCC(CN[C@@H]3C[C@H]3c3ccccc3)CC2)C1` (relative stereo) [Example 49, [1-Methyl-3-(4-{[(trans-2-phenylcyclopropyl)amino]methyl}piperidin-1-yl)azetidin-3-yl]acetonitrile]: not above 100 nM; `O=C(O)CC1(N2CCC(CN[C@@H]3C[C@H]3c3ccccc3)CC2)CNC1` (relative stereo) [Example 50, [3-(4-{[(trans-2-Phenylcyclopropyl)amino]methyl}piperidin-1-yl)azetidin-3-yl]acetic acid]: not above 100 nM. The compound `CNC(=O)CC1(N2CCC(CN[C@@H]3C[C@H]3c3ccccc3)CC2)CNC1` (relative stereo) [Example 51, N-Methyl-2-(3-(4-((trans-2-phenylcyclopropylamino)methyl)piperidin-1-yl)azetidin-3-yl)acetamide] came in with an IC50 not above 100 nM. In the case of `CN(C)C(=O)CC1(N2CCC(CN[C@@H]3C[C@H]3c3ccccc3)CC2)CNC1` (relative stereo) [Example 52, N,N-Dimethyl-2-(3-(4-((trans-2-phenylcyclopropylamino)methyl)piperidin-1-yl)azetidin-3-yl)acetamide], the half-inhibitory concentration (IC50) was not above 100 nM. Regarding `C[C@H](NC(=O)c1cc(F)c(N2CC(CC#N)(N3CC(CNC4CC4c4ccccc4)C3)C2)cc1F)C(F)(F)F` (stereo partly drawn) [Example 27, 4-(3′-(Cyanomethyl)-3-{[(trans-2-phenylcyclopropyl)amino]methyl}-1,3′-biazetidin-1′-yl)-2,5-difluoro-N-[(1S)-2,2,2-trifluoro-1-methylethyl]benzamide], the 50% inhibitory concentration (IC50) is not above 100 nM. Regarding `N#CC1(c2ccccc2)CCC(N2CC(CNC3CC3c3ccccc3)C2)CC1` (stereo not drawn) [Example 30, 1-Phenyl-4-(3-{[(trans-2-phenylcyclopropyl)amino]methyl}azetidin-1-yl)cyclohexanecarbonitrile], the half-inhibitory concentration (IC50) was not above 100 nM. With `O=C(O)CC1(N2CCC(CN[C@@H]3C[C@H]3c3ccccc3)(Cc3ccc(F)cc3)CC2)CCC1` [Example 53, {1-[4-(4-fluorobenzyl)-4-({[(1R,2S)-2-phenylcyclopropyl]amino}methyl)piperidin-1-yl]cyclobutyl}acetic acid], the IC50 is not above 100 nM.

In turn, `COCC1(CN[C@@H]2C[C@H]2c2ccccc2)CCN(C2(CC(=O)O)CCC2)CC1` [Example 54, {1-[4-(methoxymethyl)-4-({[(1R,2S)-2-phenylcyclopropyl]amino}methyl)piperidin-1-yl]cyclobutyl}acetic acid] yielded a concentration for half-maximal inhibition (IC50) not above 100 nM. `CC1(CN[C@@H]2C[C@H]2c2ccccc2)CCN(C2(CC(=O)O)CCC2)CC1` [Example 55, {1-[4-methyl-4-({[(1R,2S)-2-phenylcyclopropyl]amino}methyl)piperidin-1-yl]cyclobutyl}acetic acid] returned an IC50 not above 100 nM. Under `CN(C)C(=O)CC1(N2CCC(C)(CN[C@@H]3C[C@H]3c3ccccc3)CC2)CCC1` [Example 56, N,N-dimethyl-2-{1-[4-methyl-4-({[(1R,2S)-2-phenylcyclopropyl]amino}methyl)piperidin-1-yl]cyclobutyl}acetamide] stands not above 100 nM. `CNC(=O)CC1(N2CCC(C)(CN[C@@H]3C[C@H]3c3ccccc3)CC2)CCC1` [Example 57, N-methyl-2-{1-[4-methyl-4-({[(1R,2S)-2-phenylcyclopropyl]amino}methyl)piperidin-1-yl]cyclobutyl}acetamide] came in with a half-inhibitory concentration (IC50) not above 100 nM. `CS(=O)(=O)N1CC(CC#N)(N2CCC(N[C@@H]3C[C@H]3c3ccccc3)CC2)C1` [Example 58, [1-(methylsulfonyl)-3-(4-{[(1R,2S)-2-phenylcyclopropyl]amino}piperidin-1-yl)azetidin-3-yl]acetonitrile] yielded an IC50 not above 100 nM. In turn, `CN1CC(CC#N)(N2CCC(N[C@@H]3C[C@H]3c3ccccc3)CC2)C1` [Example 59, [1-methyl-3-(4-{[(1R,2S)-2-phenylcyclopropyl]amino}piperidin-1-yl)azetidin-3-yl]acetonitrile] displayed an IC50 not above 100 nM. As to `N#CCC1(N2CCC(N[C@@H]3C[C@H]3c3ccccc3)CC2)CNC1` [Example 60, [3-(4-{[(1R,2S)-2-phenylcyclopropyl]amino}piperidin-1-yl)azetidin-3-yl]acetonitrile], the IC50 is not above 100 nM. Under `N#CCC1(N2CCC(N[C@H]3C[C@@H]3c3ccccc3)CC2)CNC1` [Example 61, [3-(4-{[(1S,2R)-2-phenylcyclopropyl]amino}piperidin-1-yl)azetidin-3-yl]acetonitrile] stands not above 100 nM.
